The results in this text go back to patent publication US20200056174A1, “COMPOSITIONS AND METHODS OF TREATING CANCER” (DANA-FARBER CANCER INSTITUTE, INC., priority 2016, published 2020).

In one experiment the test system is BT-549 cells. The experiment can be described thus: Expression (qRT-PCR, immunoblot) in treated BT-549 TNBC cells. The class given is cell-based, human. The note with it: vs vehicle. On the procedure: (§1) Cell culture. Human BT-549, SUM-159 and mouse Eo771 TNBC cells were propagated in RPMI1640 medium (ATCC, Manassas, Va., USA). Human MDA-MB-468 and MDA-MB-231 TNBC cells were cultured in Dulbecco's modified Eagle's medium (DMEM) (Corning, Manassas, Va., USA). Human BT-20 TNBC cells were cultured in Eagle's Minimum Essential Medium (EMEM) (ATCC). Media were supplemented with 10% heat-inactivated fetal bovine serum, 100 units/ml penicillin, and 100 μg/ml streptomycin. Authentication of the cells was performed by short tandem repeat (STR) analysis. Cells were monitored for Mycoplasma contamination by MycoAlert® Mycoplasma Detection Kit (Lonza, Rockland, Mass., USA). BT-549 and MDA-MB-231 cells were transfected with lentiviral vectors to stably express a scrambled control shRNA (CshRNA; Sigma, St. Louis, Mo., USA) and a NF-κB p65 shRNA (Sigma). Human BT-20 and mouse Eo771 cells were stably transfected to express an empty vector or one encoding MUC1-C. […]
(§2) Quantitative real-time, reverse transcriptase PCR (qRT-PCR). […]
(§3) Immunoblot analysis. […] Immunoreactive complexes were detected using horseradish peroxidase-conjugated secondary antibodies (GE Healthcare Life Sciences, Marlborough, Mass., USA) and an enhanced chemiluminescence (ECL) detection reagents (Perkin Elmer Health Sciences, Waltham, Mass., USA). […] Lysates were analyzed using the Lightswitch Luciferase Assay Kit (Active Motif).
(In general: In qPCR the cycle at which signal appears reflects the starting amount.)

The subject of the next experiment is BT-20/MUC1-C cells. The experiment can be described thus: Expression (qRT-PCR, immunoblot) in treated BT-20/MUC1-C cells. The experiment is classed as cell-based, human. The note with it: vs vehicle. On the procedure: as §1, §2, §3
The next experiment deals with H1975 cells. The experiment can be described thus: Gene expression (qRT-PCR) in treated H1975 NSCLC cells. The experiment is classed as cell-based, human. The note with it: 5 μM BAY-11-7085, 18 h, vs DMSO. On the procedure:
(§4) Cell culture. Human A549/KRAS(G12S), H460/KRAS(Q61H) and H1975/EGFR(L858R/T790M) NSCLC cells (ATCC) were grown in RPMI1640 medium supplemented with 10% heat-inactivated fetal bovine serum (HI-FBS), 100 μg/ml streptomycin, 100 units/ml penicillin and 2 mM L-glutamine. Authentication of the cells was performed by short tandem repeat (STR) analysis. Cells were transfected with lentiviral vectors to stably express a scrambled control shRNA (CshRNA; Sigma), a MUC1 shRNA (MUC1shRNA; Sigma), a NF-κB p65 shRNA (Sigma), MUC1-C or MUC1-C (AQA) (27, 8, 49). Cells were treated with the IκB inhibitor BAY-11-7085 (Sigma) or DMSO as the vehicle control. Cells were also treated with empty nanoparticles (NPs) or GO-203/NPs (39).
(§5) Quantitative real-time, reverse transcriptase PCR (qRT-PCR). Whole cell RNA was isolated using the RNeasy mini kit (Qiagen). The High Capacity cDNA Reverse Transcription kit (Life Technologies) was used to synthesize cDNAs from 2 μg RNA. The SYBR green qPCR assay kit and the ABI Prism Sequence Detector (Applied Biosystems) were used to amplify the cDNAs.
(§6) Immunoblot analysis. Whole cell lysates were prepared in NP-40 lysis buffer and immunoblotted with antibodies against MUC1-C (LabVision), PD-L1 (Cell Signaling Technology) and β-actin (Sigma). Horseradish peroxidase secondary antibodies and enhanced chemiluminescence (GE Healthcare) were used for the detection of immune complexes.

Another experiment has as its system Eo771/MUC1-C cells. The experiment can be described thus: Expression (qRT-PCR, immunoblot) in treated Eo771/MUC1-C cells. The experiment is classed as cell-based, mouse. To be noted: vs vehicle. Here is the method: as §1, §2, §3
A further experiment relates to H460 cells. The experiment can be described thus: Gene expression (qRT-PCR) in treated H460 NSCLC cells. The experiment is classed as cell-based, human. The note with it: 5 μM BAY-11-7085, 18 h, vs DMSO. On the procedure:
as §4, §5, §6

`CC(C)(C)c1ccc(S(=O)(=O)/C=C/C#N)cc1` [BAY-11-7085]: the PD-L1 expression entry in the experiment on BT-549 cells (5 μM BAY-11-7085, 24 h) is listed as “suppression of PD-L1 expression”; in the experiment with BT-20/MUC1-C cells (5 μM BAY-11-7085, 24 h), “suppression of PD-L1 expression”. Besides, the “PD-L1 expression (mRNA, qRT-PCR)” value with H1975 cells and in the experiment with H460 cells was “suppresses PD-L1 expression” each time. Further, the “TLR7 mRNA levels” value in the experiment on H1975 cells and in the experiment with H460 cells was “decreases in TLR7 mRNA levels” throughout. Also, the “MUC1-C→PD-L1 response (PD-L1 mRNA and protein)” value in the experiment on Eo771/MUC1-C cells (5 μM BAY-11-7085, 24 h) is “inhibited”.

For `Cc1sc2c(c1C)C(c1ccc(Cl)cc1)=N[C@@H](CC(=O)OC(C)(C)C)c1nnc(C)n1-2` [JQ1], the PD-L1 expression entry is “downregulation of PD-L1 expression” in the experiment with BT-549 cells (5 μM JQ1, 48 h) and “downregulation of PD-L1 expression” with BT-20/MUC1-C cells (5 μM JQ1, 48 h). For the same compound, the “MUC1-C→PD-L1 response (PD-L1 mRNA and protein)” value in the experiment with Eo771/MUC1-C cells (5 μM JQ1, 48 h) was “inhibited”.
